Test results reported in article PMC13095444, “Discovery of RGS2-FBXO44 interaction inhibitors using a cell-based NanoBit assay” (Molecular Pharmacology, 2025).

Experiments:
[1] = test system: HEK-293T-RGS2-FBXO44 NanoBit cells; assay: Cell viability assay (GF-AFC fluorescence) multiplexed with NanoBit; type: cell-based, Human; settings: for Cell toxicity (in words) / Viability (% of Control): 100 μM; for Viability (% of Control): 16–18 hours
Procedure: The cells were plated in DMEM without phenol red (Gibco, #21063), 0.1% BSA in a white, tissue culture-treated 384-well plate (Perkin Elmer) at 15,000 cells/well, unless indicated otherwise, and allowed to attach. The plate was centrifuged at 212 × g for 30 seconds to aid in even cell adherence. Compound treatments were initiated 4–5 hours after plating. Following indicated treatment times, media was removed from the plate using BioTek ELx405 plate washer. Additionally, 10 μL of Hank’s Balanced Salt solution (HBSS) with 0.1% BSA was added to each well, followed by 5 μL of glycyl-phenylalanyl-aminofluorocoumarin (GF-AFC; MP Biomedicals) diluted 1:1000 in 100 mM HEPES. Plates were then centrifuged at 212 × g for 30 seconds and then incubated at 37 °C for 30 minutes. Fluorescence was detected on a Synergy Neo2 multimode plate reader (BioTek/Agilent).
Our primary assay using the HEK-293T RGS2-FBXO44 NanoBit cell line was extensively optimized to ensure maximum quality for screening. Coupling a fluorescent cell viability assay with our screen would allow us to rule out cytotoxic compounds while also hopefully reducing outliers from pipetting errors while plating cells. Thus, we multiplexed our NanoBit assay with cell viability using a cell-permeable fluorogenic protease substrate (glycyl-phenylalanyl-aminofluorocoumarin; GF-AFC; [Niles et al, 2007]), which can be combined with a luminescent readout without interfering with the luciferase signal. We previously utilized a similar multiplexing strategy in several screens ([Sjögren et al, 2012]; [Raveh et al, 2014]; [Sjögren et al, 2015]). We assessed and optimized treatment conditions (time, temperature, and reagent volume), cell density, buffer composition, and DMSO tolerance. In addition to the supplied proprietary LCS buffer (Promega), we also tested DMEM, 0.1% BSA, PBS, and HBSS (Supplemental Fig. 1A–C). […] The luminescent signal was stable up to 45 minutes after reagent addition, and we chose to run subsequent assays using 20 minutes of incubation time (Supplemental Fig. 1E). We also observed no effect on either viability or luminescence signal at DMSO concentrations <1% (Data not shown).
(§1) HEK-293T-RGS2-FBXO44 NanoBit cells were treated for 16–18 hours with compound at 100 μM. This relatively high concentration was chosen because of the challenging nature of our assay (intracellular PPI inhibition). Parental HEK-293T cells were used as a negative control. […] Based on these criteria, 97 compounds were identified as hits from our primary screen (6.1% initial hit rate). To confirm hits, the same assay was repeated in triplicate, which delivered 34 compounds that reached the threshold for inhibition in at least 2 replicates with <25% cell toxicity (Fig. 2C; Supplemental Table 1), thus rendering a final hit rate of 2.1%.

RGS2-FBXO44 interaction = molecular target: T1, RGS2-FBXO44 interaction (Homo sapiens, UniProt P41220); assay: RGS2-FBXO44 NanoBit assay (HEK-293T RGS2-SmBiT/LgBiT-FBXO44 stable clone #6); type: cell-based; settings: for % Inhibition @ 100 μM of RGS2-FBXO44 NanoBit signal: 16–18 hours, fresh powder, luminescence normalized to viability, vs nontreated cells; for IC50: concentrations 500 to 0.01 μM, RLU normalized to viability (RFU), read-out: IC50 (μM), inhibition of RGS2-FBXO44 NanoBit signal
T1 construct: expressed in transfected cells
T1 sequence (P41220 1-211): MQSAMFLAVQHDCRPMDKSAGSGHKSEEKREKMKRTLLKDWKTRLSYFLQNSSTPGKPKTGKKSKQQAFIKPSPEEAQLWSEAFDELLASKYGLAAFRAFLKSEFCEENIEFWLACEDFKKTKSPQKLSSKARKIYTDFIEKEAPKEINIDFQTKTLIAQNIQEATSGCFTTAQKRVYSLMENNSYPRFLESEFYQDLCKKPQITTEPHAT
Procedure: Nano-Glo Live Cell Substrate (LCS) was diluted 1:50 in HBSS to form a 2× stock, and then, 15 μL was added to each well. Plates were shaken on an orbital shaker at 500 rpm for 5 minutes protected from light and then spun down at 1000 rpm for 30 seconds. Plates were incubated at room temperature for 20 minutes, and then, luminescence was detected on a Synergy Neo2 multimode plate reader.
as §1
Fresh powders of 20 compounds were purchased and reassayed for their ability to inhibit the RGS2-FBXO44 NanoBit signal, using the same assay paradigm as in the primary screen (Fig. 3; Table 1). […] Nevertheless, all compounds were confirmed to inhibit the RGS2-FBXO44 NanoBit signal at this high concentration.
We next assessed the concentration-dependent effect of our 20 hits. Compounds were assayed at concentrations ranging from 500 to 0.01 μM. NanoBit luminescence (relative luminescence units) was normalized to viability (RFU) and presented as a percentage of untreated cells.

RGS2 protein levels = assay: PathHunter ProLabel assay of RGS2 protein levels in HEK-293T-RGS2-PL cells; type: cell-based, Human; settings: 100 μM compound overnight (16–18 hours)
Procedure: The PathHunter ProLabel assay was run as described previously ([Sjögren et al, 2012]; [Raveh et al, 2014]; [Sjögren et al, 2015]). Briefly, HEK-293T-RGS2-PL cells were plated at 10,000 cells per well in a white, tissue culture-treated 384-well plate (Perkin Elmer) in DMEM without phenol red (#21063; Gibco) and 0.1% BSA. The cells were allowed to attach for 4 hours, followed by treatment with DMSO, 10 μM MG-132, or 100 μM of compounds. Prior to the detection of RGS2 protein levels by the ProLabel assay, a fluorescent viability assay was performed in the same well, as described above. PathHunter ProLabel reagents (DiscoveRx) were prepared according to the manufacturer’s directions and added to the plate, followed by incubation at room temperature for 1 hour. Luminescence corresponding to RGS2-PL protein levels was detected using a Synergy Neo2 multimode plate reader.
Compounds that inhibit the interaction between RGS2 and FBXO44 would protect RGS2 from proteasomal degradation and result in increased RGS2 protein levels. We therefore next assayed our 20 hits for their ability to increase RGS2 protein levels. We first performed western blot analysis of HEK-293T cells transfected with RGS2-HA and FLAG-FBXO44 and treated overnight (16–18 hours) with 100 μM compound, using proteasome inhibitor MG-132 as a positive control (10 μM). […] Although somewhat disappointing, given the limited sensitivity of western blot, we opted to also test the compounds using an alternate assay paradigm. Specifically, we used the PathHunter ProLabel assay (DiscoveRx), an enzyme complementation assay in which a protein of interest is tagged with a 4 kDa part of β-galactosidase (ProLabel; PL). The chemiluminescent signal in the assay correlates with relative levels of the PL-tagged target protein. We previously developed a stable HEK-293T-RGS2-PL cell line that was used in several high-throughput screening campaigns ([Sjögren et al, 2012]; [Raveh et al, 2014]; [Sjögren et al, 2015]). The PathHunter ProLabel assay offers a more quantitative measurement of protein levels, with a larger dynamic range than a western blot. We treated HEK-293T-RGS2-PL cells overnight (16–18 hours) with 100 μM compound and used 10 μM MG-132 as a positive control.
As a further validation of the action of compound 10, we assessed whether the ability to increase RGS2 protein levels was dependent on FBXO44 using the PathHunter ProLabel assay. HEK-293T-RGS2-PL cells transfected with either nontargeting (NT) or FBXO44-targeting siRNA were treated overnight (16–18 hours) with vehicle or compound 10 (100 μM). […] Thus, compound 10 increases RGS2 protein levels through a mechanism that is dependent on FBXO44.

| Structure (SMILES) | Cell toxicity (in words) [1] | Viability (% of Control) ([1]; fresh powder) | % Inhibition @ 100 μM of RGS2-FBXO44 NanoBit signal (RGS2-FBXO44 interaction) | IC50 (RGS2-FBXO44 interaction) [µM] | RGS2 protein levels (PathHunter ProLabel) (RGS2 protein levels) | Cell toxicity at 100 μM ([1]; fresh powder) [%] |
| --- | --- | --- | --- | --- | --- | --- |
| Cc1cccc(C(=O)N2CCN(c3nc(C)cc(N4CCCCC4)n3)CC2)c1 [Compound 1] | significant toxicity | 45.8∗∗∗∗ % of Control | 48.9∗∗∗∗ % | 58 | significantly increased RGS2 protein levels | – |
| Cc1nc(N2CCN(C(=O)c3cccc(N(C)C)c3)CC2)cc(C(F)(F)F)n1 [Compound 2] | – | 101.9 % of Control | 68.0∗∗∗∗ % | 72.2 | – | – |
| Cc1cc(N2CCCC2)nc(N2CCN(C(=O)c3ccccc3C)CC2)n1 [Compound 3] | – | 54.1∗∗∗∗ % of Control | 40.6∗∗∗∗ % | 78.9 | – | – |
| CCOc1ccc(C(=O)NCc2ccnc(N3CCCCC3)n2)cc1 [Compound 4] | – | 89.5 % of Control | 47.2∗∗∗∗ % | 38.2 | – | – |
| CCOc1ccc(C(=O)Nc2ccc3c(c2)N(C(=O)C(C)C)CCC3)cc1OCC [Compound 5] | – | 120.5 % of Control | 44.5∗∗∗∗ % | 151 | – | – |
| CCOc1ccc(S(=O)(=O)N(Cc2cccn2C)C2CC2)cc1F [Compound 6] | – | 116.6 % of Control | 36.8∗∗∗∗ % | 25.6 | – | – |
| Cc1cc(C)c(C)c(S(=O)(=O)N2CCCC2)c1C [Compound 7] | – | 91.7 % of Control | 56.5∗∗∗∗ % | 42.1 | – | – |
| CCOc1ccc(S(=O)(=O)N2CCCCCC2)cc1C [Compound 8] | – | 80.6∗∗∗∗ % of Control | 86.1∗∗∗∗ % | 9.2 | – | – |
| O=S(=O)(C1CC1)N1CCCCC(c2ccc(Cl)cc2)C1 (centres unmarked) [Compound 9] | – | 103.6 % of Control | 74.5∗∗∗∗ % | 9.7 | – | – |
| CCOc1cc(C)c(C)cc1S(=O)(=O)N1CCN(c2ccccc2)CC1 [Compound 11] | – | 139.6 % of Control | 49.6∗∗∗∗ % | 29 | – | – |
| O=C(NCC1(O)CCOc2ccccc21)C1(c2ccc(Cl)cc2)CCCC1 (centres unmarked) [Compound 12] | – | 116.6 % of Control | 32.6∗∗∗∗ % | 5.8 | – | – |
| O=C(N(CCc1ccccc1)Cc1ccccn1)C12CC3CC(CC(C3)C1)C2 [Compound 13] | almost complete cell toxicity | 7.5∗∗∗∗ % of Control | – | – | – | < 90 |
| COC1(CNC(=O)CCc2ccccc2)C2CC3CC(C2)CC1C3 (centres unmarked) [Compound 14] | – | 93.9 % of Control | 70.7∗∗∗∗ % | 67.4 | – | – |
| Cc1cc(C)c(C)c(Cn2c(CCNC(=O)CCC(C)O)nc3ccccc32)c1C (centres unmarked) [Compound 15] | – | 68.5∗∗∗∗ % of Control | 50.2∗∗∗∗ % | 20.3 | – | – |
| CCCCNC(=O)c1nnn(-c2ccccc2)c1C(C)C [Compound 16] | – | 93.7 % of Control | 75.8∗∗∗∗ % | 54.8 | – | – |
| CSc1ccccc1C(=O)NCc1cc(C2CC2)n(C2CCCC2)n1 [Compound 17] | – | 69.2∗∗∗∗ % of Control | 69.0∗∗∗∗ % | 88.1 | – | – |
| O=C(Cc1ccccc1Cl)N(CCc1cccs1)C1CCOCC1 [Compound 18] | – | 81.5∗∗∗∗ % of Control | 51.2∗∗∗∗ % | 122 | – | – |
| CCCOc1cc(S(=O)(=O)NCC2CCCO2)ccc1Cl (centres unmarked) [Compound 19] | – | 85.8∗∗ % of Control | 74.8∗∗∗∗ % | 39.6 | – | – |
| CCc1nc(C)cn1S(=O)(=O)c1cc(OC)c(C)cc1C [Compound 20] | – | 44.4∗∗∗∗ % of Control | 67.3∗∗∗∗ % | 4.4 | – | – |
